The values below come from ChEMBL document CHEMBL1131681, “Thiazolo[4,5-d]pyrimidine thiones and -ones as corticotropin-releasing hormone (CRH-R1) receptor antagonists” (Bioorg Med Chem Lett, 1999).

This assay has as its target T1, Corticotropin-releasing factor receptor 1 (Homo sapiens, UniProt P34998).
T1 sequence (P34998 whole entry): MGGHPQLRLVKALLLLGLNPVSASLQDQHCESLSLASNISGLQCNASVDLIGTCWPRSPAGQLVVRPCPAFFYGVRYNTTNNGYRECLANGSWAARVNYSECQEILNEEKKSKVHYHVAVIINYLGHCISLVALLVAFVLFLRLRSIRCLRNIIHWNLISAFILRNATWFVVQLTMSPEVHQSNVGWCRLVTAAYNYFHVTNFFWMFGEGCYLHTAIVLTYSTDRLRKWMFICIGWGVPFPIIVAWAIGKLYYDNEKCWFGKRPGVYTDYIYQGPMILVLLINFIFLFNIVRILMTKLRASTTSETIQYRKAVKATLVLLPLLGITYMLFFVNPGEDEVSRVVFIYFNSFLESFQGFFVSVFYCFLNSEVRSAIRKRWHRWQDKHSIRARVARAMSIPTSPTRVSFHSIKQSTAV
Put plainly: Binding affinity against human Corticotropin releasing factor receptor 1 expressed in HEK 293E cells using [125I]TYR-oCRH. Type of assay: cell-based, HEK293.
What is called Ki is the dissociation constant of the complex between target and ligand, obtained from inhibition or displacement. `CCCN(CC1CC1)c1nc(C)nc2c1sc(=S)n2-c1c(C)cc(C)cc1C` showed a Ki of 13.1 nM.
Molecule `COCCN(CCOC)c1nc(C)nc2c1sc(=O)n2-c1c(C)cc(C)cc1C` showed a Ki of 5 nM.
On to `COCCN(CCOC)c1nc(C)nc2c1sc(=O)n2-c1ccc(C(C)C)cc1Br`, for which the Ki came to 14.5 nM.
For `CCN(CC)c1nc(C)nc2c1sc(=O)n2-c1c(C)cc(C)cc1C` the value was 14.5 nM; for `CCN(CC)c1nc(C)nc2c1sc(=S)n2-c1ccc(C(C)C)cc1Br`, 4.1 nM; for `CCC(C)N(c1nc(C)nc2c1sc(=S)n2-c1ccc(C(C)C)cc1Br)C(C)CC` (stereo not given), 45.4 nM.
For `CCCCN(CC)c1nc(C)nc2c1sc(=S)n2-c1ccc(C(C)C)cc1Br` the value was 23.9 nM; for `CCCN(CC1CC1)c1nc(C)nc2c1sc(=S)n2-c1ccc(C(C)C)cc1Br`, 12.6 nM; for `CCCN(CC1CC1)c1nc(C)nc2c1sc(=O)n2-c1c(C)cc(C)cc1C`, 16.2 nM.
For `CCCN(CC1CC1)c1nc(C)nc2c1sc(=O)n2-c1ccc(C(C)C)cc1Br` the value was 4.1 nM; for `CCN(CC)c1nc(C)nc2c1sc(=O)n2-c1ccc(C(C)C)cc1Br`, 9.4 nM; for `Cc1nc(N2CCOCC2)c2sc(=S)n(-c3ccc(C(C)C)cc3Br)c2n1`, 122 nM.
The molecule `CCN(CC)c1nc(C)nc2c1sc(=S)n2-c1c(C)cc(C)cc1C` returned a Ki of 9.2 nM.
In turn, `COCCN(CCOC)c1nc(C)nc2c1sc(=S)n2-c1c(C)cc(C)cc1C` displayed a Ki of 8.6 nM.
For `COCCN(CCOC)c1nc(C)nc2c1sc(=S)n2-c1ccc(C(C)C)cc1Br` the value was 6.6 nM.
